In patent publication US12187696B2, “Urea motif containing compounds and derivatives thereof as antibacterial drugs” (Technische Universität München, priority 2016, dated 2025):
Values after ≈ are worked out from the molar mass of the structure shown. “Also recorded” adds a separate entry of the source.

Legend:
[1] = test system: Staphylococcus aureus USA300; assay: Minimal inhibitory concentration (MIC) assay; type: cell-based; details: B medium
S. aureus Mu50 = assay: Minimal inhibitory concentration (MIC) assay; type: cell-based; details: Staphylococcus aureus, B medium
[2] = test system: Staphylococcus aureus DSM18827; assay: Minimal inhibitory concentration (MIC) assay; type: cell-based; details: B medium
[3] = test system: Staphylococcus aureus NCTC8325; assay: Minimal inhibitory concentration (MIC) assay; type: cell-based; details: for MIC: Staphylococcus aureus NCTC8325, B medium
Experimental: Minimum inhibitory concentrations (MICs) represent the lowest concentration of sample that will inhibit the visible growth of a microorganism after overnight incubation, and was obtained by a 96 well plate-based assay (Thermo Scientific) with serial dilutions of the probes tested. […] Bacteria were diluted in fresh medium to a concentration of 10^5 CFU/mL. In the case of all other bacteria species tested, fresh media was inoculated 1/10000 and directly used for testing. Diluted bacterial cultures (99 μL) were added to various concentrations of probe (1 μL of the respective stock in DMSO). A growth control containing DMSO (1 μL) and cultivated medium (99 μL) and a sterile control containing fresh medium (100 μL) were run on every 96 well plate in triplicates. After incubation at 37° C. with gentle shaking (200 rpm) for 24 h, the dilution series was analysed for microbial growth, usually indicated by turbidity and/or a pellet of bacteria at the bottom of the well. The lowest concentration in the dilution series at which no growth of bacteria could be observed by eye was defined as the minimum inhibitory concentration (MIC) of the probe. MIC values were determined by three independent experiments with at least triplicate runs for each concentration. […] Both compounds were tested against various bacterial strains. […] The assay was performed as described above.

[4] = test system: Staphylococcus aureus Bk95395; assay: Minimal inhibitory concentration (MIC) assay; type: cell-based; details: Staphylococcus aureus Bk95395 (clinical isolate); B medium
[5] = test system: Staphylococcus aureus Bk97296; assay: Minimal inhibitory concentration (MIC) assay; type: cell-based; details: Staphylococcus aureus Bk97296 (clinical isolate); B medium
[6] = test system: Staphylococcus aureus IS050678; assay: Minimal inhibitory concentration (MIC) assay; type: cell-based; details: Staphylococcus aureus IS050678 (clinical isolate); B medium
[7] = test system: Staphylococcus aureus IS050611; assay: Minimal inhibitory concentration (MIC) assay; type: cell-based; details: Staphylococcus aureus IS050611 (clinical isolate); B medium
[8] = test system: Staphylococcus aureus VA417350; assay: Minimal inhibitory concentration (MIC) assay; type: cell-based; details: Staphylococcus aureus VA417350 (clinical isolate); B medium
[9] = test system: Staphylococcus aureus VA418879; assay: Minimal inhibitory concentration (MIC) assay; type: cell-based; details: Staphylococcus aureus VA418879 (clinical isolate); B medium
[10] = test system: Staphylococcus aureus VA402923; assay: Minimal inhibitory concentration (MIC) assay; type: cell-based; details: Staphylococcus aureus VA402923 (clinical isolate); B medium
[11] = test system: Staphylococcus aureus VA412350; assay: Minimal inhibitory concentration (MIC) assay; type: cell-based; details: Staphylococcus aureus VA412350 (clinical isolate); B medium
[12] = test system: Staphylococcus aureus VA409044; assay: Minimal inhibitory concentration (MIC) assay; type: cell-based; details: Staphylococcus aureus VA409044 (clinical isolate); B medium
[13] = test system: Mycobacterium smegmatis mc^2 155; assay: Minimal inhibitory concentration (MIC) assay; type: cell-based; details: Mycolicibacterium smegmatis, MC^2155, LB medium
[14] = test system: Mycobacterium tuberculosis H37Rv; assay: Minimal inhibitory concentration (MIC) assay; type: cell-based; details: 7H9 medium
Bacillus subtilis = assay: Minimal inhibitory concentration (MIC) assay; type: cell-based; details: LB medium
Acinetobacter baumannii = assay: Minimal inhibitory concentration (MIC) assay; type: cell-based; details: B medium
Pseudomonas aeruginosa = assay: Minimal inhibitory concentration (MIC) assay; type: cell-based; details: B medium
[15] = test system: Enterobacter cloacae subsp. Cloacae; assay: Minimal inhibitory concentration (MIC) assay; type: cell-based; details: B medium
Enterobacter aerogenes = assay: Minimal inhibitory concentration (MIC) assay; type: cell-based; details: Klebsiella aerogenes, B medium
S. aureus NCTC 8325 = type: cell-based
[16] = test system: S. aureus NCTC 8325 persister cells; assay: Persister cell assay I; type: cell-based; details: gentamicin-selected persisters in PBS; 70 h; 2.4 μM PK/X17-1-150, 24 μM sorafenib, 5 μg/mL ciprofloxacin
S. aureus NCTC8325 = assay: Analysis of S. aureus NCTC8325 secretome; details: 0.5×MIC (PK/X17-1-150 0.15 μM, sorafenib 1.5 μM), 1.5 h

Structure (SMILES)	MIC [1] [µM]	MIC (S. aureus Mu50) [µM]	MIC [2] [µM]	MIC [3] [µM]	MIC [4] [µM]	MIC [5] [µM]	MIC [6] [µM]	MIC [7] [µM]	MIC [8] [µM]	MIC [9] [µM]	MIC [10] [µM]	MIC [11] [µM]	MIC [12] [µM]	MIC [13] [µM]	MIC [14] [µM]	MIC (Bacillus subtilis) [µM]	MIC (Acinetobacter baumannii) [µM]	MIC (Pseudomonas aeruginosa) [µM]	MIC [15] [µM]	MIC (Enterobacter aerogenes) [µM]	other results
O=C(Nc1ccc2c(c1)OC(F)(F)O2)Nc1ccc(Cl)c(C(F)(F)F)c1 [Example 4, 1-(4-Chloro-3-(trifluoromethyl)phenyl)-3-(2,2-difluorobenzo[d][1,3]dioxol-5-yl)urea]	0.3 (≈ 0.118 µg/mL)	0.3 (≈ 0.118 µg/mL)	0.3 (≈ 0.118 µg/mL)	0.3 (≈ 0.118 µg/mL)	0.3 (≈ 0.118 µg/mL)	0.3 (≈ 0.118 µg/mL)	0.3 (≈ 0.118 µg/mL)	0.3 (≈ 0.118 µg/mL)	0.3 (≈ 0.118 µg/mL)	0.3 (≈ 0.118 µg/mL)	0.3 (≈ 0.118 µg/mL)	0.3 (≈ 0.118 µg/mL)	0.3 (≈ 0.118 µg/mL)	1 (≈ 0.395 µg/mL)	2 (≈ 0.789 µg/mL)	1 (≈ 0.395 µg/mL)	10 (≈ 3.95 µg/mL)	> 100	> 100	> 100	IC50 ([3]; Staphylococcus aureus, NCTC8325, inhibition of bacterial growth of S. aureus NCTC 8325, obtained by MIC assay): 300 nM; resistance development on serial passaging (S. aureus NCTC 8325; S. aureus NCTC 8325, subinhibitory levels, 27 days, listed as PK/X17-1-150): did not induce resistance; also recorded: no resistant development; activity against S. aureus that developed resistance against sorafenib (S. aureus NCTC 8325; preliminary results): still active; viable persister cells (CFU/mL) vs DMSO control [16]: significant reduction of viable cells; secretome (secreted proteins) vs DMSO (S. aureus NCTC8325): Essential cell wall biosynthesis proteins are among the processed proteins; also recorded: strong increase of extracellular proteins
CNC(=O)c1cc(Oc2ccc(NC(=O)Nc3ccc(Cl)c(C(F)(F)F)c3)cc2)ccn1 [Sorafenib, reference compound]	3 (≈ 1.39 µg/mL)	3 (≈ 1.39 µg/mL)	3 (≈ 1.39 µg/mL)	3 (≈ 1.39 µg/mL)	5 (≈ 2.32 µg/mL)	5 (≈ 2.32 µg/mL)	5 (≈ 2.32 µg/mL)	3 (≈ 1.39 µg/mL)	5 (≈ 2.32 µg/mL)	5 (≈ 2.32 µg/mL)	5 (≈ 2.32 µg/mL)	5 (≈ 2.32 µg/mL)	3 (≈ 1.39 µg/mL)	6 (≈ 2.79 µg/mL)	25 (≈ 11.6 µg/mL)	5 (≈ 2.32 µg/mL)	> 100	> 100	> 100	> 100	first signs of lower sensitivity (S. aureus NCTC 8325; serial passaging of S. aureus): ≤ 5 days; increase of minimal inhibitory concentration (factor) (S. aureus NCTC 8325; serial passaging, within the first 10 days): 40; viable persister cells (CFU/mL) vs DMSO control [16]: significant reduction of viable cells; secretome (secreted proteins) vs DMSO (S. aureus NCTC8325): SpsB substrates are secreted; also recorded: strong increase of extracellular proteins
